The values that follow come from US8067394B2, “Synthesis and biological activities of new tricyclic-bis-enones (TBEs)” (Trustees of Dartmouth College, priority 2006, dated 2011).

Test [1] concerns NO production in RAW cells. The experiment in a line: Inhibition of NO production in RAW cells stimulated with interferon-γ. The format is cell-based, mouse. To be noted: for IC50: read-out: IC50 (nM), NO production in RAW cells.
Test [2] deals with NO production in primary mouse macrophages. To be noted: cited from earlier work; for IC50: Table 1, stimulated with interferon-γ, compounds racemic.
Test [3] relates to heme oxygenase-1. Description: Induction of heme oxygenase-1 in liver of CD-1 mice after gavage. The note with it: FIG. 3; CD-1 mice, gavage in DMSO, livers after 6 h. The format is in vivo. The protocol:
FIG. 3. […] CD-1 mice (2 per group) were gavaged with TBEs or CDDO-Im in DMSO. After 6 h, livers were harvested and homogenized. Lysates were separated by SDS-PAGE, probed with HO-1 antibodies, and developed by ECL.
FIG. 11. […] Male CD-1 mice (3 per group) were gavaged with 1 μmol TBEs, CDDO or CDDO-Im in DMSO. Six hours later, livers were harvested and homogenized. Lysates were separated by SDS-PAGE, probed with HO-1 antibodies, and developed by ECL.
CD-1 mice (2 per group) were gavaged with TBEs or CDDO-Im in DMSO. After 6 h, livers were harvested and homogenized. Lysates were separated by SDS-PAGE, probed with HO-1 antibodies, and developed by ECL.

Test [4] concerns HO-1. Description: Induction of HO-1 in RAW cells (Western blot). The format is cell-based, mouse. To be noted: FIG. 9; 30-300 nM, 24 hours. (In general: In western blotting, separated proteins are transferred to a membrane and probed.)
The subject of test [5] is MCF-7 mouse breast cancer cell lines. The note with it: Honda et al., 2003; cited from earlier work.
For test [6], the system named is NO production in RAW cells. The note with it: Honda et al., 2000, 2002; cited from earlier work.
Test [7] deals with iNOS. Description: Inhibition of iNOS induction in RAW cells stimulated with IFN-γ (Western blot). To be noted: FIG. 10; 30-300 nM, IFNγ 10 ng/ml, 24 hours. The format is cell-based, mouse.
Where [8] appears, read: Mus musculus, Table 5, C-8a functionalized TBE-9 analogs, stimulated with interferon-γ.
Where [9] appears, read: Mus musculus, Table 6, optically active TBE-31 and 34, stimulated with interferon-7.

Entries after “also recorded” stand apart in the source; their conditions may differ. Like-named read-outs stand apart in the source and are kept apart here.

For orientation: IC50 means the point on the concentration scale where inhibition reaches its midpoint. On to `CC1(C)C(=O)C(C#N)=CC2(C)C3=CC(=O)C(C#N)=CC3(C#C[Si](C)(C)C)CCC12` (single isomer, unassigned; (-)) [(−)-TBE-34], for which the IC50 in test [1] (Table 6, optically active TBE-31 and 34, stimulated with interferon-7) came out at 3 nM.
With `CC(=O)O[C@@H]1CCC=C2[C@@]3(C)C=C(C#N)C(=O)C(C)(C)[C@@H]3CC[C@]21C` [TBE-2], the 50% inhibitory concentration (IC50) in test [2] was 480 nM.
As to `CC1(C)C(=O)C(C#N)=C[C@]2(C)C3=CC(=O)C[C@@H](O)[C@]3(C)CC[C@@H]12` [TBE-4], in test [2], the IC50 is 75 nM.
Turning to `CC#CC12C=C(C#N)C(=O)C=C1C1(C)C=C(C#N)C(=O)C(C)(C)C1CC2` (stereo not shown) [TBE-35], the IC50 in test [1] (setting [8]) turned out to be 5 nM.
In the case of `C#C[C@]12C=C(C#N)C(=O)C=C1[C@@]1(C)C=C(C#N)C(=O)C(C)(C)[C@@H]1CC2` [(−)-TBE-31], the IC50 in test [1] (setting [9]) stood at 3 nM.
As to `CCC#CC12C=C(C#N)C(=O)C=C1C1(C)C=C(C#N)C(=O)C(C)(C)C1CC2` (stereo not shown) [TBE-36], the IC50 in test [1] (setting [8]) worked out at 20 nM.
Regarding `CC1(C)CC[C@]2(C(=O)n3ccnc3)CC[C@]3(C)[C@H](C(=O)C=C4[C@@]5(C)C=C(C#N)C(=O)C(C)(C)[C@@H]5CC[C@]43C)[C@@H]2C1` [CDDO-Im, 1-[2-cyano-3-,12-dioxooleana-1,9(11)-dien-28-oyl]imidazole, reference compound], the “Induction of heme oxygenase-1 in liver in vivo” value in test [3] was “very potent triterpenoid agent for induction of heme oxygenase-1”. The “Induction of HO-1 in RAW cells” value in test [4] is “most potent compound amongst semi-synthetic triterpenoid analogues in this assay”.
Regarding `CC1(C)C(=O)C(C#N)=C[C@]2(C)C3=CC(=O)C(C#N)=C[C@]3(C)CC[C@@H]12` [(−)-TBE-9], the “Activity against MCF-7 mouse breast cancer cell lines” value in test [5] is given as “active”.
On to `C[C@]12CCC(=O)C=C1CC[C@@H]1[C@@H]2[C@@H](O)C[C@@]2(C)[C@H]1CC[C@]2(O)C(=O)CO` [hydrocortisone, reference compound], for which the IC50 in test [1] (Mus musculus, Table 4, C-8a functionalized TBE-10 analogs, stimulated with interferon-γ) was 61 nM; in test [2] it was 10 nM.
Consider `CC1(C)C(=O)C(C#N)=CC2(C)C3=CC(=O)C(C#N)=CC3(C#CC#N)CCC12` (stereo not shown) [TBE-38], for which, in test [1] (setting [8]), the IC50 came to 4 nM.
The same measure, in the same setting: for `CC1(C)CC[C@]2(C#N)CC[C@]3(C)[C@H](C(=O)C=C4[C@@]5(C)C=C(C#N)C(=O)C(C)(C)[C@@H]5CC[C@]43C)[C@@H]2C1` [TP-225, reference compound] the value was 1 nM.
Take `C#CC#CC12C=C(C#N)C(=O)C=C1C1(C)C=C(C#N)C(=O)C(C)(C)C1CC2` (stereo not shown) [TBE-39]: in test [1] (setting [8]), the IC50 was determined as 3 nM. Also, the “Potency for inhibition of NO production in RAW cells (in words)” value in test [1] (RAW cells, interferon-γ) was “nearly equivalent potency to that of TBE-31”.
For `COC(=O)[C@]12CCC(C)(C)C[C@H]1C1C(=O)C=C3[C@@]4(C)C=C(C(=O)O)C(=O)C(C)(C)[C@@H]4CC[C@@]3(C)[C@]1(C)CC2` (stereo partly shown) [TP-190, reference compound], in test [2] (Honda et al., 2000, 2002), the “Inhibition of NO production in mouse macrophages (in words)” value is given as “potent inhibitors of NO production”. In addition, the “Inhibition of NO production in RAW cells (in words)” value in test [6] is “potent inhibitors of NO production”.
For `CC1(C)C(=O)C(C#N)=CC2(C)C3=CC(=O)C(C#N)=CC3(C#C[Si](C)(C)C)CCC12` (stereo not shown) [TBE-34], the “Potency for inhibition of NO production in RAW cells (in words)” value in test [1] is recorded as “nearly equivalent potency to that of TBE-31”. Further, in test [1] (Mus musculus), the IC50 was found to be 3 nM. The “Inhibition of induction of iNOS in RAW cells stimulated with IFNγ” value in test [7] is “nearly equivalent in potency to TBE-31; also recorded: nearly equivalent in potency to both compounds”. Moreover, in test [4], the “Induction of HO-1 in RAW cells” value is listed as “nearly equivalent in potency to TBE-31”.
As to `CC1(C)C(=O)C(C#N)=C[C@]2(C)C3=CC(=O)C=C[C@]3(C)CC[C@@H]12` [TBE-5], the IC50 in test [2] is 61 nM.
As to `CC(=O)O[C@@H]1CC(=O)C=C2[C@@]3(C)C=C(C#N)C(=O)C(C)(C)[C@@H]3CC[C@]21C` [TBE-3], the IC50 in test [2] was 53 nM.
`CC1(C)CC[C@]2(C(=O)O)CC[C@]3(C)[C@H](C(=O)C=C4[C@@]5(C)C=C(C#N)C(=O)C(C)(C)[C@@H]5CC[C@]43C)[C@@H]2C1` [CDDO, 2-cyano-3,12-dioxooleana-1,9(11)-dien-28-oic acid, reference compound]: the IC50 in test [1] (Table 4, C-8a functionalized TBE-10 analogs, stimulated with interferon-γ) was 6 nM; in test [1] (Table 5, C-8a functionalized TBE-9 analogs, stimulated with interferon-γ) it was 20 nM; in test [2], 0.5 nM.
Turning to `C#C[C@@]12C=C(C#N)C(=O)C=C1[C@@]1(C)C=C(C#N)C(=O)C(C)(C)[C@H]1CC2` [(+)-TBE-31, (+)-(4bS,8aS,10aR)-10a-ethynyl-4b,8,8-trimethyl-3,7-dioxo-3,4b,7,8,8a,9,10,10a-octahydrophenanthrene-2,6-dicarbonitrile], in test [1] (setting [9]), the IC50 turned out to be 1 nM.
For `CC1(C)CC[C@]2(C(=O)O)CC[C@]3(C)C(=CC[C@@H]4[C@@]5(C)CC[C@H](O)C(C)(C)[C@@H]5CC[C@]43C)[C@@H]2C1` [Oleanolic acid, reference compound], the IC50 in test [2] is greater than 40000 nM.
